Data published in article PMC12373499 (Nature Metabolism, 2025).
Where a SMILES comes first, the peptide text is derived from it. [ ]: non-standard residue; d: D form. The star is where a group is joined. X1 = CN1C(=CC=CC=CC2=[N+](CCCCCC(=O)NCCN3C(=O)CC(*)C3=O)c3ccccc3C2(C)C)C(C)(C)c2ccccc21; Aib = CC(C)(N)C(=O)O

System: MIN6-CB4 β cells
Experiment: MIN6-CB4 cell fluorescent probe labelling, colocalization
Format: cell-based
Protocol: MIN6-CB4 cells were generated and phenotyped, as previously described. Cells were grown to 70% confluency in MIN6 media (DMEM High Glucose supplemented with 15% FBS, 71 μM 2-mercaptoethanol, 2 mM glutamine, 100 units ml^−1 penicillin, 100 μg ml^−1 streptomycin). Cells were then seeded in 100 μl MIN6 media per well, on a glass-bottomed 96-well imaging plate previously coated with poly-L-lysine 0.01%.
Probe labelling was analysed using corrected total cell fluorescence, which is integrated density − (area of selected cell × mean fluorescence of background readings)[52],[53]. Colocalization was determined using Manders’ coefficient, which calculates the proportion of pixels in one channel that also show intensity from both channels. Full width at half maximum was used to analyse labelling patterns at the membrane versus cytoplasm. All analyses were performed in ImageJ (NIH), with brightness and contrast linearly adjusted across the entire image for presentation purposes and applied equally between all states under examination.

[1] = daLUXendin660 (tirz Cy5 500nM) vs LUXendin551 (100nM), image 2022.05.06 1-1
[2] = daLUXendin660 (tirz Cy5 500nM) vs LUXendin551 (100nM), image 2022.05.06 1-2
[3] = daLUXendin660 (tirz Cy5 500nM) vs LUXendin551 (100nM), image 2022.05.06 1-3
[4] = daLUXendin660 (tirz Cy5 500nM) vs LUXendin551 (100nM), image 2022.05.06 1-4
[5] = daLUXendin660 (tirz Cy5 500nM) vs LUXendin551 (100nM), image 2022.05.06 2-1
[6] = daLUXendin660 (tirz Cy5 500nM) vs LUXendin551 (100nM), image 2022.05.06 2-2
[7] = daLUXendin660 (tirz Cy5 500nM) vs LUXendin551 (100nM), image 2022.05.06 2-3
[8] = daLUXendin660 (tirz Cy5 500nM) vs LUXendin551 (100nM), image 2022.05.06 2-4
[9] = daLUXendin660 (tirz Cy5 500nM) vs LUXendin551 (100nM), image 2022.05.12 1-1
[10] = daLUXendin660 (tirz Cy5 500nM) vs LUXendin551 (100nM), image 2022.05.12 1-2
[11] = daLUXendin660 (tirz Cy5 500nM) vs LUXendin551 (100nM), image 2022.05.12 1-3
[12] = daLUXendin660 (tirz Cy5 500nM) vs LUXendin551 (100nM), image 2022.05.12 1-4
[13] = daLUXendin660 (tirz Cy5 500nM) vs LUXendin551 (100nM), image 2022.05.12 2-1
[14] = daLUXendin660 (tirz Cy5 500nM) vs LUXendin551 (100nM), image 2022.05.12 2-2
[15] = daLUXendin660 (tirz Cy5 500nM) vs LUXendin551 (100nM), image 2022.05.12 2-3
[16] = daLUXendin660 (tirz Cy5 500nM) vs LUXendin551 (100nM), image 2022.05.12 2-4
[17] = daLUXendin660 (tirz Cy5 500nM) vs sGIP549 (JB2228 100nM), image 2022.05.06 1-1
[18] = daLUXendin660 (tirz Cy5 500nM) vs sGIP549 (JB2228 100nM), image 2022.05.06 1-2
[19] = daLUXendin660 (tirz Cy5 500nM) vs sGIP549 (JB2228 100nM), image 2022.05.06 1-3
[20] = daLUXendin660 (tirz Cy5 500nM) vs sGIP549 (JB2228 100nM), image 2022.05.06 1-4
[21] = daLUXendin660 (tirz Cy5 500nM) vs sGIP549 (JB2228 100nM), image 2022.05.06 2-1
[22] = daLUXendin660 (tirz Cy5 500nM) vs sGIP549 (JB2228 100nM), image 2022.05.06 2-2
[23] = daLUXendin660 (tirz Cy5 500nM) vs sGIP549 (JB2228 100nM), image 2022.05.06 2-3
[24] = daLUXendin660 (tirz Cy5 500nM) vs sGIP549 (JB2228 100nM), image 2022.05.06 2-4
[25] = daLUXendin660 (tirz cy5 500nM) vs sGIP549 (JB2228 100nM), image 2022.05.12 1-1
[26] = daLUXendin660 (tirz cy5 500nM) vs sGIP549 (JB2228 100nM), image 2022.05.12 1-2
[27] = daLUXendin660 (tirz cy5 500nM) vs sGIP549 (JB2228 100nM), image 2022.05.12 1-3
[28] = daLUXendin660 (tirz cy5 500nM) vs sGIP549 (JB2228 100nM), image 2022.05.12 1-4
[29] = daLUXendin660 (tirz cy5 500nM) vs sGIP549 (JB2228 100nM), image 2022.05.12 2-1
[30] = daLUXendin660 (tirz cy5 500nM) vs sGIP549 (JB2228 100nM), image 2022.05.12 2-2
[31] = daLUXendin660 (tirz cy5 500nM) vs sGIP549 (JB2228 100nM), image 2022.05.12 2-3
[32] = daLUXendin660 (tirz cy5 500nM) vs sGIP549 (JB2228 100nM), image 2022.05.12 2-4

For `CC[C@H](C)[C@H](NC(=O)[C@H](CC(C)C)NC(=O)[C@H](Cc1c[nH]c2ccccc12)NC(=O)[C@H](CCC(N)=O)NC(=O)[C@@H](NC(=O)[C@H](Cc1ccccc1)NC(=O)[C@H](C)NC(=O)[C@H](CCCCN)NC(=O)[C@H](CCC(N)=O)NC(=O)[C@H](C)NC(=O)[C@@H](NC(=O)[C@H](CCCCN)NC(=O)[C@H](CC(=O)O)NC(=O)[C@H](CC(C)C)NC(=O)C(C)(C)NC(=O)[C@@H](NC(=O)[C@H](CO)NC(=O)[C@H](Cc1ccc(O)cc1)NC(=O)[C@H](CC(=O)O)NC(=O)[C@H](CO)NC(=O)[C@@H](NC(=O)[C@H](Cc1ccccc1)NC(=O)[C@@H](NC(=O)CNC(=O)[C@H](CCC(=O)O)NC(=O)C(C)(C)NC(=O)[C@@H](N)Cc1ccc(O)cc1)[C@@H](C)O)[C@@H](C)O)[C@@H](C)CC)[C@@H](C)CC)C(C)C)C(=O)N[C@@H](C)C(=O)NCC(=O)NCC(=O)N1CCC[C@H]1C(=O)N[C@@H](CO)C(=O)N[C@@H](CO)C(=O)NCC(=O)N[C@@H](C)C(=O)N1CCC[C@H]1C(=O)N1CCC[C@H]1C(=O)N1CCC[C@H]1C(=O)N[C@@H](CSC1CC(=O)N(CCNC(=O)CCCCC[N+]2=C(C=CC=CC=C3N(C)c4ccccc4C3(C)C)C(C)(C)c3ccccc32)C1=O)C(N)=O` (stereo partly shown) [daLUXendin660] (H-Y[Aib]EGTFTSDYSI[Aib]LDKIAQKAFVQWLIAGGPSSGAPPPC(X1)-NH2), the “Manders' R” value [1] was 0.82, the “Pearson's” value [1] was 0.663 and the “Manders' R” value [2] was 0.763. For the same compound, the “Pearson's” value [2] was 0.555, the “Manders' R” value [3] was 0.866 and the “Pearson's” value [3] was 0.756. For the same compound, the “Manders' R” value [4] was 0.82, the “Pearson's” value [4] was 0.61 and the “Manders' R” value [5] was 0.849. For the same compound, the “Pearson's” value [5] was 0.778, the “Manders' R” value [6] was 0.803 and the “Pearson's” value [6] was 0.595. For the same compound, the “Manders' R” value [7] was 0.811, the “Pearson's” value [7] was 0.656 and the “Manders' R” value [8] was 0.83. The “Pearson's” value [8] was 0.66, the “Manders' R” value [9] was 0.861 and the “Pearson's” value [9] was 0.826. The “Manders' R” value [10] was 0.847, the “Pearson's” value [10] was 0.812 and the “Manders' R” value [11] was 0.799. For the same compound, the “Pearson's” value [11] was 0.723, the “Manders' R” value [12] was 0.766 and the “Pearson's” value [12] was 0.713. The “Manders' R” value [13] was 0.8, the “Pearson's” value [13] was 0.745 and the “Manders' R” value [14] was 0.809. The “Pearson's” value [14] was 0.769, the “Manders' R” value [15] was 0.825 and the “Pearson's” value [15] was 0.795. The “Manders' R” value [16] was 0.894, the “Pearson's” value [16] was 0.914 and the “Manders' R” value [17] was 0.9. For the same compound, the “Pearson's” value [17] was 0.838, the “Manders' R” value [18] was 0.901 and the “Pearson's” value [18] was 0.809. For the same compound, the “Manders' R” value [19] was 0.886, the “Pearson's” value [19] was 0.756 and the “Manders' R” value [20] was 0.894. For the same compound, the “Pearson's” value [20] was 0.818, the “Manders' R” value [21] was 0.899 and the “Pearson's” value [21] was 0.824. For the same compound, the “Manders' R” value [22] was 0.894, the “Pearson's” value [22] was 0.796 and the “Manders' R” value [23] was 0.901. For the same compound, the “Pearson's” value [23] was 0.822, the “Manders' R” value [24] was 0.878 and the “Pearson's” value [24] was 0.769. The “Manders' R” value [25] was 0.862, the “Pearson's” value [25] was 0.834 and the “Manders' R” value [26] was 0.735. For the same compound, the “Pearson's” value [26] was 0.645, the “Manders' R” value [27] was 0.775 and the “Pearson's” value [27] was 0.722. The “Manders' R” value [28] was 0.833, the “Pearson's” value [28] was 0.821 and the “Manders' R” value [29] was 0.823. The “Pearson's” value [29] was 0.764, the “Manders' R” value [30] was 0.748 and the “Pearson's” value [30] was 0.736. For the same compound, the “Manders' R” value [31] was 0.968, the “Pearson's” value [31] was 0.975 and the “Manders' R” value [32] was 0.784. The “Pearson's” value [32] was 0.683.
